Source: ChEMBL document CHEMBL3885861, “Open TG-GATES”

Species on record: Rattus norvegicus
Assay: Open TG-GATES - Regimen: Daily Repeat
Assay type: toxicity, organism-based, Sprague-Dawley
Set-up: regimen Daily Repeat, gender Male, age 6 weeks
Conditions: in vivo, po, 20 mg/kg, route gavage, dose level Low; for APTT / Bas / Eos / Fbg / Hb / Ht / Lym / MCH / MCHC / MCV / Mono / Neu / PT / Plat / RBC / Ret / WBC: tissue Blood; for KIDNEY_L / KIDNEY_R / KIDNEY_TOTAL: tissue Kidney; for LIVER: tissue Liver; for A/G / ALP / ALT / AST / BUN / CRE / Ca / Cl / DBIL / GLC / IP / K / LDH / Na / PL / RALB / TBIL / TC / TG / TP / gamma-GTP: tissue Plasma

## CC(CN1c2ccccc2Sc2ccccc21)N(C)C (configuration not stated) [PROMETHAZINE]
72 h, time 3 day
  TERMINAL_BW: 231 g
  APTT: 22 s
  Bas: 0%
  Eos: 1%
  Fbg: 314.4 mg/dL
  Hb: 13.3 g/dL
  Ht: 40.4%
  Lym: 77.2%
  MCH: 20.7 pg
  MCHC: 33.1%
  MCV: 62.7 fL
  Mono: 2.4%
  Neu: 18.6%
  PT: 16.2 s
  Plat: 125.4 x10_4/uL
  RBC: 644.6 x10_4/ul
  Ret: 6.8%
  WBC: 97.3 x10_2/uL
  KIDNEY_L: 1 g
  KIDNEY_R: 1.1 g
  KIDNEY_TOTAL: 2.1 g
  LIVER: 11.5 g
  A/G: 1.2
  ALP: 1570.4 IU/L
  ALT: 48.2 IU/L
  AST: 75.2 IU/L
  BUN: 17.2 mg/dL
  CRE: 0.2 mg/dL
  Ca: 10.8 mg/dL
  Cl: 105.4 meq/L
  DBIL: 0 mg/dL
  GLC: 184 mg/dL
  IP: 7.1 mg/dL
  K: 4.3 meq/L
  LDH: 166.4 IU/L
  Na: 142 meq/L
  PL: 155.2 mg/dL
  RALB: 3.1 g/dL
  TBIL: 0.004 mg/dL
  TC: 78.2 mg/dL
  TG: 118.4 mg/dL
  TP: 5.7 g/dL
  gamma-GTP: 2 IU/L
[…], time 7 day
  TERMINAL_BW: 261 g
  APTT: 22.6 s
  Bas: 0%
  Eos: 0.8%
  Fbg: 282.6 mg/dL
  Hb: 13.4 g/dL
  Ht: 40.4%
  Lym: 84.4%
  MCH: 20.5 pg
  MCHC: 33.3%
  MCV: 61.5 fL
  Mono: 2.4%
  Neu: 11.6%
  PT: 16 s
  Plat: 114.7 x10_4/uL
  RBC: 657.4 x10_4/ul
  Ret: 5.4%
  WBC: 125.4 x10_2/uL
  KIDNEY_L: 1.1 g
  KIDNEY_R: 1.1 g
  KIDNEY_TOTAL: 2.2 g
  LIVER: 12.4 g
  A/G: 1.3
  ALP: 1595.8 IU/L
  ALT: 46 IU/L
  AST: 79.8 IU/L
  BUN: 18.2 mg/dL
  CRE: 0.2 mg/dL
  Ca: 10.5 mg/dL
  Cl: 106.4 meq/L
  DBIL: 0 mg/dL
  GLC: 185.2 mg/dL
  IP: 6.7 mg/dL
  K: 4.3 meq/L
  LDH: 169.2 IU/L
  Na: 141.6 meq/L
  PL: 133 mg/dL
  RALB: 3.1 g/dL
  TBIL: 0.004 mg/dL
  TC: 66.2 mg/dL
  TG: 113.4 mg/dL
  TP: 5.5 g/dL
  gamma-GTP: 1.8 IU/L
[…], time 14 day
  TERMINAL_BW: 292.3 g
  APTT: 23.8 s
  Bas: 0%
  Eos: 1%
  Fbg: 315 mg/dL
  Hb: 14.7 g/dL
  Ht: 42.6%
  Lym: 79.6%
  MCH: 19.8 pg
  MCHC: 34.4%
  MCV: 57.6 fL
  Mono: 2%
  Neu: 16.6%
  PT: 15.8 s
  Plat: 112 x10_4/uL
  RBC: 740.6 x10_4/ul
  Ret: 4.2%
  WBC: 109.3 x10_2/uL
  KIDNEY_L: 1.1 g
  KIDNEY_R: 1.1 g
  KIDNEY_TOTAL: 2.3 g
  LIVER: 13.1 g
  A/G: 1.2
  ALP: 1261.8 IU/L
  ALT: 45.8 IU/L
  AST: 71.4 IU/L
  BUN: 18.6 mg/dL
  CRE: 0.2 mg/dL
  Ca: 10.6 mg/dL
  Cl: 106 meq/L
  DBIL: 0 mg/dL
  GLC: 182.6 mg/dL
  IP: 6.2 mg/dL
  K: 4.1 meq/L
  LDH: 128.4 IU/L
  Na: 142.6 meq/L
  PL: 146.6 mg/dL
  RALB: 3.2 g/dL
  TBIL: 0.004 mg/dL
  TC: 71.6 mg/dL
  TG: 116.6 mg/dL
  TP: 5.8 g/dL
  gamma-GTP: 2.6 IU/L
[…], time 28 day
  TERMINAL_BW: 387.7 g
  APTT: 23.6 s
  Bas: 0%
  Eos: 1%
  Fbg: 297.6 mg/dL
  Hb: 15 g/dL
  Ht: 43.5%
  Lym: 79.2%
  MCH: 19.1 pg
  MCHC: 34.6%
  MCV: 55.2 fL
  Mono: 1.6%
  Neu: 17.4%
  PT: 16.3 s
  Plat: 96.2 x10_4/uL
  RBC: 787.8 x10_4/ul
  Ret: 2.3%
  WBC: 118.8 x10_2/uL
  KIDNEY_L: 1.4 g
  KIDNEY_R: 1.4 g
  KIDNEY_TOTAL: 2.7 g
  LIVER: 15.9 g
  A/G: 1.1
  ALP: 1046.2 IU/L
  ALT: 48.6 IU/L
  AST: 71.6 IU/L
  BUN: 19.8 mg/dL
  CRE: 0.2 mg/dL
  Ca: 10.4 mg/dL
  Cl: 106.4 meq/L
  DBIL: 0 mg/dL
  GLC: 184.6 mg/dL
  IP: 5.9 mg/dL
  K: 4 meq/L
  LDH: 136 IU/L
  Na: 143.2 meq/L
  PL: 137.4 mg/dL
  RALB: 3.1 g/dL
  TBIL: 0.006 mg/dL
  TC: 65.4 mg/dL
  TG: 139.8 mg/dL
  TP: 6 g/dL
  gamma-GTP: 2 IU/L
